From ChEMBL document CHEMBL2375325, “Anti-neuroinflammatory properties of synthetic cryptolepine in human neuroblastoma cells: possible involvement of NF-κB and p38 MAPK inhibition” (Eur J Med Chem, 2013)
Active and inactive are the calls of the source. No cut-off for these calls is given here.

Key:
SK-N-SH [1] = experiment: Inhibition of microsomal PGES-1 gene expression in IL1beta-stimulated human SK-N-SH cells at 5 uM preincubated for 30 mins prior to IL1beta-stimulation measured after 4 hrs by qPCR analysis; format: functional, cell-based
SK-N-SH [2] = experiment: Cytotoxicity against human SK-N-SH cells after 24 hrs by ATP assay; format: cell-based
SK-N-SH [3] = experiment: Antiinflammatory activity against human SK-N-SH cells assessed as inhibition of IL1beta-induced IL6 production at 2.5 to 20 uM preincubated for 30 mins prior to IL1beta-stimulation measured after 24 hrs by ELISA; format: functional, cell-based
[4] = biological target: T1, MAP kinase p38 (Homo sapiens) (UniProt O15264+Q15759+Q16539+P53778); experiment: Inhibition of p38 MAPK in human SK-N-SH cells assessed as inhibition of IL1beta-induced MAPKAPK2 phosphorylation preincubated for 30 mins prior to IL1beta-stimulation measured after 1 hr by Western blotting analysis; format: cell-based
SK-N-SH [5] = experiment: Inhibition of IL1beta-induced IkappaB phosphorylation in human SK-N-SH cells at 2.5 to 20 uM after 15 mins by ELISA; format: cell-based
SK-N-SH [6] = experiment: Inhibition of microsomal PGES-1 gene expression in IL1beta-stimulated human SK-N-SH cells at 10 to 20 uM preincubated for 30 mins prior to IL1beta-stimulation measured after 4 hrs by qPCR analysis; format: functional, cell-based
[7] = biological target: T1, MAP kinase p38 (Homo sapiens); experiment: Inhibition of IL1beta-induced p38 MAPK phosphorylation in human SK-N-SH cells at 10 to 20 uM preincubated for 30 mins prior to IL1beta-stimulation measured after 1 hr by Western blotting analysis; format: cell-based
SK-N-SH [8] = experiment: Inhibition of COX2 protein expression in IL1beta-stimulated human SK-N-SH cells at 2.5 uM after 24 hrs by Western blotting analysis relative to IL1beta-treated control; format: functional, cell-based
SK-N-SH [9] = experiment: Inhibition of microsomal PGES-1 protein expression in IL1beta-stimulated human SK-N-SH cells at 5 uM after 24 hrs by Western blotting analysis; format: functional, cell-based
SK-N-SH [10] = experiment: Inhibition of microsomal PGES-1 protein expression in IL1beta-stimulated human SK-N-SH cells at 2.5 uM after 24 hrs by Western blotting analysis; format: functional, cell-based
SK-N-SH [11] = experiment: Inhibition of microsomal PGES-1 protein expression in IL1beta-stimulated human SK-N-SH cells at 10 to 20 uM after 24 hrs by Western blotting analysis; format: functional, cell-based
SK-N-SH [12] = experiment: Inhibition of COX2 gene expression in IL1beta-stimulated human SK-N-SH cells at 10 to 20 uM preincubated for 30 mins prior to IL1beta-stimulation measured after 4 hrs by qPCR analysis; format: functional, cell-based
SK-N-SH [13] = experiment: Antiinflammatory activity against human SK-N-SH cells assessed as inhibition of IL1beta-induced TNFalpha production at 2.5 to 20 uM preincubated for 30 mins prior to IL1beta-stimulation measured after 24 hrs by ELISA; format: functional, cell-based
SK-N-SH [14] = experiment: Inhibition of microsomal PGES-1 gene expression in IL1beta-stimulated human SK-N-SH cells at 2.5 uM preincubated for 30 mins prior to IL1beta-stimulation measured after 4 hrs by qPCR analysis; format: functional, cell-based
SK-N-SH [15] = experiment: Antiinflammatory activity against human SK-N-SH cells assessed as inhibition of IL1beta-induced PGE2 production preincubated for 30 mins prior to IL1beta-stimulation measured after 24 hrs by enzyme immunoassay; format: functional, cell-based
SK-N-SH [16] = experiment: Inhibition of COX2 protein expression in IL1beta-stimulated human SK-N-SH cells at 5 to 20 uM after 24 hrs by Western blotting analysis; format: functional, cell-based
[17] = biological target: Transcription factor p65 (Homo sapiens) (UniProt Q04206); experiment: Inhibition of IL1beta-induced NFkappaB p65 nuclear translocation in human SK-N-SH cells after 15 mins by ELISA; format: cell-based
Sequence of Transcription factor p65 (Homo sapiens) (Q04206 whole entry): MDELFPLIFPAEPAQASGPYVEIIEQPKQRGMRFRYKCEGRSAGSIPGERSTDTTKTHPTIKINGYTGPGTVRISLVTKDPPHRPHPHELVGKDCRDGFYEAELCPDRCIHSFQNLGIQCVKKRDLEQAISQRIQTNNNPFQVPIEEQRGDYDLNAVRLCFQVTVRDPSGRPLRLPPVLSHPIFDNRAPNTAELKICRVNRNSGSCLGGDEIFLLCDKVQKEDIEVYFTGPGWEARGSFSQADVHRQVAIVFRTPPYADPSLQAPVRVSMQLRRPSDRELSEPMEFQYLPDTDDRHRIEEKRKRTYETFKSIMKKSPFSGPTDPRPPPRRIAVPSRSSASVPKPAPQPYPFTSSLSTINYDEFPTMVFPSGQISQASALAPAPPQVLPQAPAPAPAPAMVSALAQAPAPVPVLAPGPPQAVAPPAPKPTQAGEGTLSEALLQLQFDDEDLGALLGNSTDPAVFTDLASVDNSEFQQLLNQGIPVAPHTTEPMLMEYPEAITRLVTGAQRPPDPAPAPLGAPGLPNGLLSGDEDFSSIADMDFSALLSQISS

inhibition [4]: Dose-dependent effect
inhibition [7]: Active
inhibition [17]: Dose-dependent effect
Structure (SMILES): C[n+]1c2ccccc2cc2[n-]c3ccccc3c21.Cl [CRYPTOLEPINE HYDROCHLORIDE]
inhibition (SK-N-SH [1]): Active
Activity (SK-N-SH [2]): Non-toxic
Activity (SK-N-SH [3]): Active
inhibition (SK-N-SH [5]): inactive
inhibition (SK-N-SH [6]): Active
inhibition (SK-N-SH [8]): inactive
inhibition (SK-N-SH [9]): inactive
inhibition (SK-N-SH [10]): inactive
inhibition (SK-N-SH [11]): Active
inhibition (SK-N-SH [12]): Active
Activity (SK-N-SH [13]): Active
inhibition (SK-N-SH [14]): inactive
Activity (SK-N-SH [15]): Dose-dependent effect
inhibition (SK-N-SH [16]): Active
